This is an account of results in the METLIN SMRT retention time set (Domingo-Almenara et al. 2019).

This data set in a line: gradient 5% acetonitrile 3 min, to 50% in 2 min, to 85% in 15 min, held 3 min, 100 µL/min. The settings on record: column: Zorbax Extend-C18 2.1 x 50 mm; eluents: water / acetonitrile, 0.1% formic acid. The procedure, abridged: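 Each retention time is based on an adduct peak selected computationally and verified by manual inspection. Measurements used HPLC–quadrupole time-of-flight mass spectrometry in positive and negative ionization mode on mixtures of ~100 pure standards. Chromatography ran on a Zorbax Extend-C18 column (2.1 × 50 mm, 1.8 μm) at 100 μL/min with water and acetonitrile, each containing 0.1% formic acid, and dead and dwell volumes of 40 μL and 900 μL.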
`Cc1cc2c(cc1CNC(=O)Cn1c(C(F)(F)F)nc3cc4c(cc31)OCCO4)OCCCO2`: the RP-LC retention time turned out to be 851 s.
`CCn1nccc1C(=O)N1CC(n2cc(C(=O)N3CCOCC3)nn2)C1` had an RP-LC retention time of 610 s.
As for `Cc1c(Cl)cccc1NC(=O)N1CCN(C2=CC3=NCC(C)N3C=N2)CC1` (stereo not drawn), the figure is 632 s; as for `CC(C)NC(=O)c1ccc(OCC2CCN(C(=O)c3ccc(F)cc3Cl)CC2)cc1`, 888 s.
In the case of `COc1cc(NS(=O)(=O)c2c(C)nn(-c3ccc(-c4ccc(C)cc4)nn3)c2C)cc(OC)c1`, the RP-LC retention time was found to be 1120 s.
As for `COCCN1C(=O)CCc2cc(NS(=O)(=O)c3ccc(C)c(F)c3)ccc21`, the figure is 802 s.
The compound `CCc1ccc(S(=O)(=O)c2cnc(N3CCN(c4ccc(OC)cc4)CC3)nc2N)cc1` returned an RP-LC retention time of 996 s.
The figure for `Cc1ccccc1CNC(=O)Cn1cnc2onc(C)c2c1=O` is 738 s.
As for `COc1ccc(C(=O)CSc2nnc(-c3cc(C)oc3C)o2)cc1OC`, the figure is 911 s; as for `COc1ccc(OCC(O)CN2CCN(c3ccc(Cl)cc3)CC2)cc1` (stereo not drawn), 795 s.
As for `Cc1ccc(-n2nc(C)c3sc(N4CCCC(C(=O)NC(C)(C)C)C4)nc32)cc1` (stereo not drawn), the figure is 1170 s; as for `Cc1cccc(-c2csc3c(=O)n(Cc4ccc(N5CCCC5=O)cc4)cnc23)c1`, 937 s.
In turn, `COc1ccc(CNC(=O)NCCOc2cc(C)cc(C)c2)cc1OC` showed an RP-LC retention time of 782 s.
The figure for `CCc1cccc(C)c1NS(=O)(=O)c1ccc(-c2c(C)noc2C)cc1` is 1020 s; for `Cc1ccc(-c2nc(-c3ccc(S(=O)(=O)N4CCCC4)cc3)no2)cc1F` it is 1260 s.
The figure for `CCOc1ccc(Cc2nc(-c3ccc4oc(CC)nc4c3)no2)cc1` is 1130 s.
The figure for `O=C(CCc1cccc2[nH]ccc12)N1CCN(c2cccc(Cl)c2)CC1` is 980 s.
Compound `Cn1nc(-c2nc(-c3ccc(F)cc3)no2)c2c1CCN(C(=O)NC(C)(C)C)C2` came in with an RP-LC retention time of 966 s.
As for `CSc1cccc(NC(=O)C2CCCN(c3nnc(C)c4c(C)n(-c5ccccc5)nc34)C2)c1` (stereo not drawn), the figure is 798 s.
The compound `CN1CCN(CCNC(=O)c2ccc3ccnc(N4CCN(c5ccc(F)cc5)CC4)c3c2)CC1` showed an RP-LC retention time of 580 s.
The figure for `Cc1cc(C)c(NC(=O)Cn2c(=O)n(-c3ccc(F)cc3)c(=O)c3c2cc(C)n3C)c(C)c1` is 921 s; for `Cc1ccccc1NC(=O)Cn1ccc2sccc2c1=O` it is 701 s; for `O=C(Cc1cccs1)N1CCCn2cc(-c3ccccc3F)nc21` it is 848 s.
As for `CCOc1ccc(NC(=O)CN2CCc3c(c(=O)c4cc(C)ccc4n3C)C2)cc1`, the figure is 637 s; as for `CCOC(=O)C1CCN(c2cc3c(cc2NC(=O)NCc2ccc(C)cc2)n(C)c(=O)n3C)CC1`, 842 s; as for `Cc1ccc(CNC(=O)C2(C)Cn3nc(C(=O)NCc4ccccc4)cc3C(=O)N2C)cc1` (stereo not drawn), 766 s.
For the compound `Cc1ccc(-c2nnc(-c3nn(C)c4c3CN(S(=O)(=O)c3ccccc3F)CC4)o2)cc1`, the RP-LC retention time was determined as 970 s.
The figure for `CCCC(=O)N1CCCN(C2=NS(=O)(=O)C(c3ccc(C)cc3)=C2C)CC1` is 797 s; for `Cc1nc2cc(-c3noc(CNC(=O)Cc4ccccc4)n3)ccc2o1` it is 780 s; for `COc1ccc(CNC(=O)C2(C)CCCN(S(=O)(=O)c3cccc(C)c3)C2)cc1` (stereo not drawn) it is 935 s.
The figure for `COc1cc(-c2noc(-c3nn(-c4cccc(F)c4)ccc3=O)n2)cc(OC)c1OC` is 824 s; for `COc1ccc(C2C(C(=O)NCc3ccccc3OC)c3ccccc3C(=O)N2C)cc1` (stereo not drawn) it is 864 s.
As for `CCc1noc(-c2ccc(-n3ncc(C(=O)NC(C)C)c3C)nc2)n1`, the figure is 837 s; as for `COc1ccc(N2CCN(C(=O)c3[nH]c(C)c(S(=O)(=O)N4CCOCC4)c3C)CC2)cc1`, 703 s.
The compound `CN(C)S(=O)(=O)c1ccc(Oc2ccc(S(=O)(=O)N(C)C)cc2)cc1` came in with an RP-LC retention time of 824 s.
The figure for `CN1C(=O)Cc2cc(NC(=O)c3ccc(C(F)(F)F)cc3)ccc21` is 748 s.
The figure for `CCOc1ccccc1NC(=O)Nc1ccc2c(c1)CC(=O)N2` is 675 s; for `COc1ccc(Cl)cc1NC(=O)c1c(O)c2cccc3c2n(c1=O)CC3` it is 1330 s; for `COc1ccc(C2C(C(=O)O)c3ccccc3C(=O)N2C)cc1OC` (stereo not drawn) it is 657 s.
As for `COc1cccc(OCC2c3ccsc3CCN2C(=O)CN(CC2CCCO2)C(=O)C(C)C)c1` (stereo not drawn), the figure is 906 s; as for `O=C1CCN(C(=O)C2CCN(C(=O)c3ccoc3)CC2)CCCCCCN1`, 612 s; as for `Cc1ccccc1-c1noc(Cn2ccn(Cc3ccc(Cl)cc3)c(=O)c2=O)n1`, 943 s.
Compound `CC(=O)N1CCc2sc(C(=O)NCc3ccc4c(c3)OCO4)cc2C1` gave an RP-LC retention time of 682 s.
`COc1cc(-c2nc(Cn3cnc4ccccc4c3=O)no2)cc(OC)c1OC`: the RP-LC retention time is 795 s.
The figure for `C(=C\CSc1ccccn1)/CSc1ccccn1` is 955 s; for `CC(C(=O)N1CCN(C(=O)c2ccco2)CC1)n1c(=O)c(C(F)(F)F)nc2ccccc21` (stereo not drawn) it is 834 s; for `NS(=O)(=O)c1ccc(CCNc2nnnc3c2cnn3-c2ccccc2)cc1` it is 814 s.
The figure for `Cc1ccc(C(=O)Nc2cnn(-c3ncncc3N3CCC(C)CC3)c2)s1` is 909 s.
As for `Cc1ccc(-c2c(N3CCN(c4ccccn4)CC3)c(=O)c2=O)cc1C`, the figure is 708 s.
As to `O=C(C1CCCN(c2ncc(-c3ccc(F)cc3)cn2)C1)N1CCCC1` (stereo not drawn), the RP-LC retention time stood at 863 s.
As to `Cc1ccc(NC(=O)C2Oc3ccccc3NC2=O)c(Br)c1` (stereo not drawn), the RP-LC retention time is 852 s.
The figure for `Cc1ccc(-c2nnc(-c3ccc(Cl)c(S(=O)(=O)N4CCCC4)c3)o2)cc1` is 1150 s.
As for `Cc1ccccc1-c1noc(C2CCCN2C(=O)Nc2cccc(F)c2)n1` (stereo not drawn), the figure is 1030 s; as for `CC(=O)Nc1cccc(N2CC(C(=O)Nc3ccc(Cl)c(C(F)(F)F)c3)CC2=O)c1` (stereo not drawn), 807 s; as for `CN1C2CCC1CC(OC(c1ccccc1)c1ccc(Cl)cc1)C2` (stereo not drawn), 862 s.
`Cc1cc(F)ccc1NC(=O)c1c(O)c2cccnc2n(-c2ccc(F)cc2)c1=O`: the RP-LC retention time was determined as 1240 s.
As for `Cc1ccc(CNC(=O)C2(C)CCN(S(=O)(=O)c3ccc(Cl)cc3)CC2)cc1`, the figure is 615 s; as for `CCc1nc2cc(N3CCCC(C(=O)NCCN4CCOCC4)C3)cnc2nc1CC` (stereo not drawn), 594 s; as for `CCn1c(=O)c2c(cc(C)n2C)n(CC(=O)Nc2ccc(F)cc2F)c1=O`, 764 s.
Consider `CC(C)NC(=O)c1c2c(nc3ccc(F)cc13)CCCC2`, for which the RP-LC retention time came to 631 s.
Take `O=C(NCc1ccco1)N1CCc2nn(Cc3ccccc3)c(=O)n2CC1`: the RP-LC retention time was determined as 687 s.
The figure for `CCC1=C(c2ccc(C)cc2)S(=O)(=O)N=C1N1CCC(C(=O)N2CCOCC2)CC1` is 780 s.
Compound `CCOC(=O)CNC(=O)N(C)CCc1noc(-c2ccc(F)cc2)n1` yielded an RP-LC retention time of 742 s.
As for `CCC1CCCCN1C(=O)c1cnc2nc(C)ccc2c1Nc1ccc(OC)cc1C` (stereo not drawn), the figure is 692 s; as for `COCCN1C(=O)c2cccn2CC1CNC(=O)Nc1ccc2c(c1)OCCO2` (stereo not drawn), 663 s.
As for `CCCSCCCNC(=O)C1CCCN(c2nc3ccccc3n(CC)c2=O)C1` (stereo not drawn), the figure is 1040 s; as for `CC(C)c1cccc(NC(=O)Cn2cc(-c3nc(-c4cccs4)no3)ccc2=O)c1`, 962 s; as for `CSc1ccc(CNC(=O)CN2CC=C(c3cnn(-c4ccccc4)c3)CC2)cc1`, 720 s.
The figure for `COc1ccccc1CNC(=O)c1cn(-c2cc(N3CCOCC3)ncn2)cn1` is 757 s; for `CN(C)c1ccc2c(c1)CN(C(=O)c1cnccn1)CCO2` it is 566 s; for `CC(C)c1cccc(NC(=O)Cn2nc(N3CCCC3)c3ccccc3c2=O)c1` it is 1090 s.
The compound `CN1CCCCCCN(C(=O)c2ccsc2)[C@H]2CCC[C@H]2C1=O` registered an RP-LC retention time of 797 s.
As for `Cc1ccn2c(NC(=O)C(C)(C)Oc3ccc(Cl)cc3)c(-c3ccccc3)nc2c1`, the figure is 804 s; as for `CCCCOc1ccc(-c2cc3c4nn(CC(=O)NC(C)C)c(=O)n4ccn3n2)cc1`, 954 s; as for `O=C(CCC(=O)N1CC(n2cnnc2C2CCOCC2)C1)N1CCOCC1`, 550 s.
`COc1ccccc1NC(=O)c1ccc(NS(=O)(=O)c2cc(C)ccc2C)cc1` returned an RP-LC retention time of 926 s.
As for `Cc1cnn(CCC(=O)N2CCCn3ccnc3C2C2CCCC2)c1` (stereo not drawn), the figure is 611 s; as for `CCC(c1cccs1)N1C(=O)[C@H]2CN(S(=O)(=O)c3ccc(F)c(C)c3)C[C@H]2C1=O` (stereo partly drawn), 978 s.
